Paper PMC6792352, “Limited Chemical Structural Diversity Found to Modulate Thyroid Hormone Receptor in the Tox21 Chemical Library” (Environmental Health Perspectives, 2019)
Structures can show the parent of a compound that is named as a salt. Where two headings read alike, the source gives them in different places. No end group written: not given here.

Columns and labels:
[1] = test system: GH3-TRE-Luc cell line; settings: read-out: AC50 (uM) modified / 1000, viability, 1 nM T3 present, 24 h
[2] = in vitro; settings: rat, gh3-tre-luc cells

Row | Molecule | CC50 at 24 h ([2]; AC50 (uM) modified / 1000) [µM] | also measured
1 | CC(=O)N1CCN(c2ccc(OC[C@@H]3CO[C@@](Cn4ccnc4)(c4ccc(Cl)cc4Cl)O3)cc2)CC1 (racemic) [Ketoconazole] | – | CC50 ([1]; Tox21_110001=Tox21_300267): 23.7 µM
2 | C#C[C@]1(O)CC[C@H]2[C@@H]3CCC4=CC(=O)CC[C@@H]4[C@H]3CC[C@@]21CC (racemic) [dl-Norgestrel] | – | CC50 ([1]; Tox21_110001=Tox21_303623): 64.5 µM
3 | CC(=C(CCO)SSCC1CCCO1)N(C=O)Cc1cnc(C)nc1N (stereo in doubt) [Fursultiamine] | – | CC50 ([1]; Tox21_110001=Tox21_112989): 34.7 µM
4 | c1cc(C(c2ccc(OCC3CO3)cc2)C(c2ccc(OCC3CO3)cc2)c2ccc(OCC3CO3)cc2)ccc1OCC1CO1 (stereo not drawn) [1,1,2,2-(4,4',4'',4'''-Tetraglycidyloxyphenyl)ethane] | – | CC50 ([1]; Tox21_110001=Tox21_202150): 25.2 µM
5 | BrC1CCC(Br)C(Br)CCC(Br)C(Br)CCC1Br (stereo not drawn) [1,2,5,6,9,10-Hexabromocyclododecane] | – | CC50 ([1]; Tox21_110001=Tox21_201402): 17.5 µM; CC50 ([1]; Tox21_110001=Tox21_303176): 38.8 µM
6 | Nc1ccccc1N [1,2-Phenylenediamine] | – | CC50 ([1]; Tox21_110001=Tox21_400014): 73.8 µM
7 | c1cnc2c(c1)ccc1cccnc12 [1,10-Phenanthroline hydrochloride hydrate] | – | CC50 ([1]; Tox21_110001=Tox21_301286): 7.25 µM
8 | c1cnc2c(c1)ccc1cccnc12 [1,10-Phenanthroline] | – | CC50 ([1]; Tox21_110001=Tox21_201998): 46.4 µM; CC50 ([1]; Tox21_110001=Tox21_303111): 66.2 µM
9 | COc1ccc(C(=O)CC(=O)c2ccc(C(C)(C)C)cc2)cc1 [1-(4-tert-Butylphenyl)-3-(4-methoxyphenyl)propane-1,3-dione] | – | CC50 ([1]; Tox21_110001=Tox21_111427): 24.3 µM; CC50 ([1]; Tox21_110001=Tox21_202796): 71.9 µM
10 | Nc1c(S(=O)(=O)O)cc(Br)c2c1C(=O)c1ccccc1C2=O [1-Amino-4-bromo-9,10-dioxo-9,10-dihydroanthracene-2-sulfonic] [1-Amino-4-bromo-9,10-dioxo-9,10-dihydroanthracene-2-sulfonic acid] | – | CC50 ([1]; Tox21_110001=Tox21_301752): 60.1 µM
11 | CCCC[n+]1ccc(C)cc1 [1-Butyl-4-methylpyridinium chloride] | – | CC50 ([1]; Tox21_110001=Tox21_202685): 39.2 µM
12 | CCCCCCCCCCn1cc[n+](C)c1 [1-Decyl-3-methylimidazolium bromide] | – | CC50 ([1]; Tox21_110001=Tox21_202622): 18 µM
13 | Cc1ccccc1OCC1CO1 (stereo not drawn) [o-Cresyl glycidyl ether] | > 90 | –
14 | Cc1ccccc1S(N)(=O)=O [o-Toluenesulfonamide] | > 90 | –
15 | Cc1ccccc1C [o-Xylene] | > 90 | –
16 | O=C(O)C(c1ccc(Cl)cc1)c1ccc(Cl)cc1 [p,p'-DDA] | > 90 | –
17 | Clc1ccc(C(c2ccc(Cl)cc2)C(Cl)(Cl)Cl)cc1 [p,p'-DDT] | – | CC50 at 24 h ([2]; AC50 (uM) modified / 1000, Tox21_110001=Tox21_111076, viability, 1 nM T3 present, 24 h): 19.5 µM; CC50 at 24 h ([2]; AC50 (uM) modified / 1000, Tox21_110001=Tox21_201495, viability, 1 nM T3 present, 24 h): 44.8 µM; CC50 at 24 h ([2]; AC50 (uM) modified / 1000, Tox21_110001=Tox21_300067, viability, 1 nM T3 present, 24 h): 28.7 µM
18 | CCc1ccc(C(c2ccc(CC)cc2)C(Cl)Cl)cc1 [p,p'-Ethyl-DDD] | 82.4 | –
19 | O=Nc1ccc(NO)cc1 [p-Benzoquinone dioxime] | > 100 | –
20 | Brc1ccc(Oc2ccccc2)cc1 [p-Bromodiphenyl ether] | > 90 | –
21 | Cc1ccc(O)cc1 [p-Cresol] | > 100 | –
22 | Cc1ccc(C(C)(C)O)cc1 [p-Cymen-8-ol] | > 90 | –

Row | Molecule | CC50 at 24 h ([2]; AC50 (uM) modified / 1000) [µM] | also measured
23 | Cc1ccc(C(C)C)cc1 [p-Cymene] | > 90 | –
24 | CC1CCC(C(C)(C)S)C(=O)C1 (stereo not drawn) [p-Mentha-8-thiol-3-one] | > 90 | –
25 | CC(=O)c1ccc(C)cc1 [p-Methylacetophenone] | > 90 | –
26 | CN(C)c1ccc(CCO)cc1 [p-N,N-Dimethylaminophenethanol] | > 90 | –
27 | Cc1ccc(S(=O)(=O)N=C=O)cc1 [p-Toluenesulphonyl isocyanate] | > 90 | –
28 | Cc1ccc(NC(N)=O)cc1 [p-Tolylurea] | > 90 | –
29 | Cc1ccc(C)cc1 [p-Xylene] | > 90 | –
30 | CCC(C)OC(=O)c1ccc(O)cc1 (stereo not drawn) [sec-Butylparaben] | > 90 | –
31 | CCC(C)NC(N)=O (stereo not drawn) [sec-Butylurea] | > 90 | –
32 | O=P(O)(O)OC[C@H](O)CO [sn-Glycerol 3-phosphate bis(cyclohexylammonium)] | > 50 | –
33 | CC(C)(C)Cl [t-Butylchloride] | > 100 | –
34 | CC(C)[C@@H](Nc1ccc(C(F)(F)F)cc1Cl)C(=O)OC(C#N)c1cccc(Oc2ccccc2)c1 (stereo partly drawn) [tau-Fluvalinate] | > 90 | –
35 | CCC(C)(C)OC [tert-Amyl methyl ether] | > 90 | –
36 | CC(=O)CC(=O)OC(C)(C)C [tert-Butyl 3-oxobutanoate] | > 90 | –
37 | CC(C)(C)OC(=O)c1ccc(O)cc1 [tert-Butyl 4-hydroxybenzoate] | > 90 | –
38 | CC(=O)OC(C)(C)C [tert-Butyl acetate] | > 90 | –
39 | C=CC(=O)OC(C)(C)C [tert-Butyl acrylate] | > 90 | –
40 | CC(C)(C)OC=O [tert-Butyl formate] | > 100 | –
41 | CC(C)(C)OCC1CO1 (stereo not drawn) [tert-Butyl glycidyl ether] | > 90 | –
42 | CC(C)(C)OC(=O)c1ccccc1C(=O)O [tert-Butyl hydrogen phthalate] | > 90 | –
43 | CC(C)(C)OO [tert-Butyl hydroperoxide (70% Solution in Water)] | > 90 | –
44 | CC(C)(C)c1ccc(OCC2CO2)cc1 (stereo not drawn) [tert-Butyl phenyl glycidyl ether] | > 90 | –

Row | Molecule | CC50 at 24 h ([2]; AC50 (uM) modified / 1000) [µM] | also measured
45 | CC(C)(C)C(=O)c1ccccc1 [tert-Butyl phenyl ketone] | > 90 | –
46 | CC(C)(C)OC(=O)c1cccc(N)c1 [tert-Butyl-3-aminobenzoate] | > 90 | –
47 | C=CC(=O)NC(C)(C)C [tert-Butylacrylamide] | > 90 | –
48 | CC(C)(C)N [tert-Butylamine] | > 90 | –
49 | CC(C)(C)c1ccccc1 [tert-Butylbenzene] | > 90 | –
50 | CC(C)(C)c1ccccc1OP(=O)(Oc1ccccc1)Oc1ccccc1 [tert-Butylphenyl diphenyl phosphate] | – | CC50 at 24 h ([2]; AC50 (uM) modified / 1000, Tox21_110001=Tox21_202980, viability, 1 nM T3 present, 24 h): > 90 µM
51 | CC(C)C(C)(C)C(C)(C)C(C)(C)S [tert-Dodecanethiol] | > 90 | –
52 | CCCCCCC(C)(C)S [tert-Nonanethiol] | > 90 | –
53 | CC(=O)OC/C=C(\C)CC/C=C(\C)CCC=C(C)C [trans,trans-Farnesyl acetate] | > 90 | –
54 | CC/C=C\CC/C=C/CO [trans-2,cis-6-Nonadien-1-ol] | > 90 | –
55 | CC/C=C\CC/C=C/C=O [trans-2,cis-6-Nonadienal] | > 90 | –
56 | C/C=C/c1ccc(OCC)c(O)c1 [trans-2-Ethoxy-5-(1-propenyl)phenol] | > 90 | –
57 | COc1ccccc1/C=C/C=O [trans-2-Methoxycinnamaldehyde] | > 90 | –
58 | O=C(O)/C=C(\CC(=O)O)C(=O)O [trans-Aconitic acid] | > 50 | –
59 | C(=C\c1ccccc1)/c1ccccc1 [trans-Stilbene] | > 100 | –
60 | C=COCCOCCOC=C [{2-[2-(Ethenyloxy)ethoxy]ethoxy}ethene] | > 90 | –
61 | CC(=O)Nc1ccn(C2COC(COC(=O)c3ccccc3)O2)c(=O)n1 (stereo not drawn) [{4-[4-(Acetylamino)-2-oxopyrimidin-1(2H)-yl]-1,3-dioxolan-2-yl}methyl benzoate] | > 50 | –
62 | C=COCC1CCC(CO)CC1 (stereo not drawn) [{4-[(Ethenyloxy)methyl]cyclohexyl}methanol] | > 90 | –
63 | Cc1cc(SCc2sc(-c3ccc(C(F)(F)F)c(F)c3)nc2C)ccc1OCC(=O)O [{4-[({2-[3-Fluoro-4-(trifluoromethyl)phenyl]-4-methyl-1,3-thiazol-5-yl}methyl)sulfanyl]-2-methylphenoxy}acetic acid] | 64.8 | –
64 | RKDVY [Thymopentin] | > 50 | –
